Where two headings read alike, the source gives them in different places.
Target: Aβ1-40 (Homo sapiens, UniProt P05067)
Assay type: biochemical
Details: for ΔLag 3 μM: 3 μM test compound; for ΔLag 4 μM: 4 μM test compound; for ΔLag 0.5 μM / ΔLag 5.0 μM / ΔLag […]: Table VI; for ΔLag 0.5 μM: 0.5 μM test compound; for ΔLag 5.0 μM: 5.0 μM test compound; for ΔLag […]: […] test compound
From the text: The nucleation assay is employed to determine the ability of test compounds to alter (e.g. inhibit) the early events in formation of β-AP fibers from monomeric β-AP. Characteristic of a nucleated polymerization mechanism, a lag time is observed prior to nucleation, after which the peptide rapidly forms fibers as reflected in a linear rise in turbidity. The time delay before polymerization of β-AP monomer can be quantified as well as the extent of formation of insoluble fiber by light scattering (turbidity). Polymerization reaches equilibrium when the maximum turbidity reaches a plateau The turbidity of a solution of natural β-AP in the absence or presence of various concentrations of a β-amyloid modulator compound is determined by measuring the apparent absorbance of the solution at 405 nm (A405 nm) over time. The threshold of sensitivity for the measurement of turbidity is in the range of 15-20 μM β-AP. […] This assay can be performed using stirring or shaking to accelerate polymerization, thereby increasing the speed of the assay. Moreover the assay can be adapted to a 96-well plate format to screen multiple compounds.
HFIP-solubilized peptide is sonicated in a waterbath sonicator for 5 min at highest setting, then evaporated to dryness under a stream of argon. The peptide film is resuspended in anhydrous dimethylsulfoxide (DMSO) at a concentration of 6.9 mg/ml (25× concentration), sonicated for 5 min as before, then filtered through a 0.2 micron nylon syringe filter (VWR cat. No.28196-050). Test compounds are dissolved in DMSO at a 100× concentration. […] Ten microliters of the mixture is then added to the bottom of a well of a Corning Costar ultra low binding 96-well plate (Coming Costar, Cambridge Mass.; cat. No. 2500). Ninety microliters of water is added to the well, the plate is shaken on a rotary shaken at a constant speed at room temperature for 30 seconds, an additional 100 μl of 2× PTL buffer (20 mM NaH2PO4, 300 mM NaCl, pH 7.4) is added to the well, the plate is reshaken for 30 seconds and a baseline (t=0) turbidity reading is taken by measuring the apparent absorbance at 405 nm using a Bio-Rad Model 450 Microplate Reader. The plate is then returned to the shaker and shaken continuously for 5 hours. Turbidity readings are taken at 15 minute intervals.
β-amyloid aggregation in the absence of any modulators results in enhanced turbidity of the natural β-AP solution (i.e., an increase in the apparent absorbance at 405 nm over time). […]

[1] = Table III, modifying groups derived from bile acids, 5 μM test compound
[2] = Table IV, hydrophobic modifying groups, 5 μM test compound
[3] = Table I, 5 μM Aβ1-40, 5 μM test compound, ratio of lag time to control
[4] = Table II, second series, different stock of Aβ1-40, 2 μM test compound
[5] = Table II, second series, different stock of Aβ1-40
[6] = Table II, second series, different stock of Aβ1-40, 5 μM test compound

Sequence of Aβ1-40 (P05067 672-711): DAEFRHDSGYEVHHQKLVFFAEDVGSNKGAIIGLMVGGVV

Substance: Hydrocinnamoyl-d(FFVL)-oh [PPI-619]
- ΔLag 5 μM (Table IX, 5 μM test compound): 2.0

Substance: Hyodeoxycholyl-LVFFA-oh [PPI-520]
- ΔLag 5 μM [1]: >2.3
- ΔLag 5 μM (Table IX, 5 μM test compound): 1.5

Substance: Isobutanoyl-d(LVFFA)-nh2 [PPI-526]
- ΔLag 5 μM [2]: 1.8

Substance: L-3-Phenyllactyl-d(AFFVL)-nh2 [PPI-608]
- ΔLag 5 μM (Table IX, 5 μM test compound): >6

Substance: Lithocholyl-LVFFA-oh [PPI-425]
- ΔLag 5 μM [1]: 1.4

Substance: Pepstatin A [PPI-516, reference compound]
- ΔLag 5 μM (Table V, hydroxylated and oxygenated modifying groups, 5 μM test compound): 1.6

Substance: Phenylacetyl-d(LVFF)-nh2 [PPI-480]
- ΔLag 5 μM [2]: 1.0

Substance: Triphenylacetyl-d(LVFF)-nh2 [PPI-485]
- ΔLag 5 μM [2]: 2.7

Substance: Ursodeoxycholyl-LVFFA-oh [PPI-522]
- ΔLag 5 μM [1]: >2.3
- ΔLag 5 μM (Table IX, 5 μM test compound): 1.2

Substance: cholyl-D-Leu-D-Val-D-Phe-D-Phe-D-Ala-NH2 [PPI-457]
- ΔLag 5 μM [3]: >10
- ΔLag 5 μM (Table IX, 5 μM test compound): >6

Substance: cholyl-D-Leu-D-Val-D-Phe-phenethylamide [PPI-494]
- ΔLag 2 μM [4]: 1.0
- ΔLag 3 μM [5]: 1.3
- ΔLag 4 μM [5]: 1.4
- ΔLag 5 μM [6]: 1.4
- ΔLag 5 μM [2]: 1.5
- ΔLag 5 μM (Table IX, 5 μM test compound): 1.3

Substance: cholyl-Leu-Val-Phe-Phe-Ala-NH2 [PPI-382]
- ΔLag 2 μM (Table I, 5 μM Aβ1-40, 2 μM test compound, ratio of lag time with compound to lag time of control): >10
- ΔLag 5 μM [3]: >12

Substance: h-d(AAAAA)-nh2 [PPI-473]
- ΔLag 3 μM [5]: 1.0
- ΔLag 4 μM [5]: 1.0
- ΔLag 5 μM [6]: 1.0

Substance: h-d(AFFFL)-nh2 [PPI-598]
- ΔLag 0.5 μM: 1.3
- ΔLag 5.0 μM: 6.3
- ΔLag […]: 2.0
- ΔLag 5 μM (Table X, 5 μM test compound): >6

Substance: h-d(AFFLL)-nh2 [PPI-577]
- ΔLag 0.5 μM: 1.0
- ΔLag 5.0 μM: >7.5
- ΔLag […]: 1.3
- ΔLag 5 μM (Table X, 5 μM test compound): >6

Substance: h-d(AFFVL)-nh2 [PPI-500]
- ΔLag 0.5 μM: 1.0
- ΔLag 5.0 μM: >6.0
- ΔLag […]: 1.8

Substance: h-d(FFFFL)-nh2 [PPI-589]
- ΔLag 0.5 μM: 1.5
- ΔLag 5.0 μM: >7.5
- ΔLag […]: 3.3
- ΔLag 5 μM (Table X, 5 μM test compound): >6

Substance: h-d(FFFLV)-nh2 [PPI-533]
- ΔLag 0.5 μM: 1.5
- ΔLag 5.0 μM: >7.5
- ΔLag […]: 3.8
- ΔLag 5 μM (Table X, 5 μM test compound): >6

Substance: h-d(FFFVL)-nh2 [PPI-579]
- ΔLag 0.5 μM: 1.8
- ΔLag 5.0 μM: >7.5
- ΔLag […]: 6.3
- ΔLag 5 μM (Table X, 5 μM test compound): >6

Substance: h-d(LFFVL)-nh2 [PPI-578]
- ΔLag 0.5 μM: 2.5
- ΔLag 5.0 μM: >7.5
- ΔLag […]: 4.8
- ΔLag 5 μM (Table X, 5 μM test compound): 3.2

Substance: h-d(LV(IodoY)FA)-nh2 [PPI-504]
- ΔLag 5.0 μM: 2.2
- ΔLag 5 μM (Table X, 5 μM test compound): 1.4

Substance: h-d(LVFA)-oh [PPI-479]
- ΔLag 2 μM [4]: 1.1
- ΔLag 3 μM [5]: 0.9
- ΔLag 4 μM [5]: 1.0
- ΔLag 5 μM [6]: 1.1

Substance: h-d(LVFF)-nh2 [PPI-471]
- ΔLag 2 μM [4]: 2.6
- ΔLag 3 μM [5]: 2.6
- ΔLag 4 μM [5]: 2.6
- ΔLag 5 μM [6]: 2.4

Substance: h-d(LVYFA)-nh2 [PPI-503]
- ΔLag 5.0 μM: 1.2

Substance: h-d(VF)-PEA [PPI-493]
- ΔLag 2 μM [4]: 1.0
- ΔLag 3 μM [5]: 1.0
- ΔLag 4 μM [5]: 1.0
- ΔLag 5 μM [6]: 1.9

Substance: h-d(VF)-PEA [PPI-497]
- ΔLag 5 μM [2]: 1.0

Substance: h-d(VFF)-oh [PPI-502]
- ΔLag 5 μM [2]: 1.0

Substance: trans-Cinnamoyl-d(LVFF)-nh2 [PPI-490]
- ΔLag 5 μM [2]: 1.0

From patent US20070248996A1, “Modulators of beta-amyloid peptide aggregation comprising D-amino acids” (Paraecis Pharmaceuticals, Inc., priority 1995, published 2007)
